For data set [1], the system named is membrane attack complex (MAC). Nature of the data set: MAC (C9) deposition in AIA knee joints (immunofluorescence). In kind it is in vivo. The note with it: 40 μg peptide + 25 μg mBSA intraarticular; day 3 post-AIA induction; anti-mouse C9 immunofluorescence; n = 6. As to the method: AIA was induced in male C57BL/6J wildtype mice (8–10 weeks of age) according to a previously described protocol (Ebbinghaus et al., [2017]) with minor modifications. Briefly, the mice were intraperitoneally injected with 200 ng pertussis toxin (List Biological Laboratories, California, USA) prior to being subcutaneously immunized with 100 μg methylated bovine serum albumin (mBSA; Sigma-Aldrich, St. Louis, Missouri, USA) emulsified in Freund's complete adjuvant (Sigma-Aldrich). The immune response was boosted with identical subcutaneous mBSA immunizations at 14 and 21 days after the first immunization. […] Every day after AIA induction (and intraarticular peptide treatment), the difference in the joint diameter (swelling in mm) between the right and left knee joints in each mouse was assessed using a digital micrometer to evaluate the AIA severity. Each joint was measured three times and the mean diameter was calculated and recorded. […]
To assess the therapeutic effects of the peptides on AIA, the mice were euthanized on day 3 post-AIA induction. […] The degree of histopathologic tissue damage was quantified using the following previously described cumulative score for evaluating disease severity (Durigutto et al., [2013]). […]

Data set [2] deals with mice with antigen-induced arthritis (AIA). The data set can be described thus: Histology (HE) of AIA knee joints. The class given is in vivo, mouse. The note with it: for synovial histology (HE): 40 μg peptide + 25 μg mBSA intraarticular, day 3 post-AIA induction, n = 6. As to the method: (§1) AIA was induced in male C57BL/6J wildtype mice (8–10 weeks of age) according to a previously described protocol (Ebbinghaus et al., [2017]) with minor modifications. Briefly, the mice were intraperitoneally injected with 200 ng pertussis toxin (List Biological Laboratories, California, USA) prior to being subcutaneously immunized with 100 μg methylated bovine serum albumin (mBSA; Sigma-Aldrich, St. Louis, Missouri, USA) emulsified in Freund's complete adjuvant (Sigma-Aldrich). The immune response was boosted with identical subcutaneous mBSA immunizations at 14 and 21 days after the first immunization. At 28 days after the initial immunization, the right knee joint of each mouse was intraarticularly injected with 10 μl PBS as the control, while the left knee joint received either 10 μl PBS only (normal group), 25 μg mBSA (to induce AIA) in 10 μl PBS (AIA-only group), 40 μg modified peptide with 25 μg mBSA in 10 μl PBS (modified peptide+AIA group), or 40 μg original peptide with 25 μg mBSA in 10 μl PBS (original peptide+AIA group). Every day after AIA induction (and intraarticular peptide treatment), the difference in the joint diameter (swelling in mm) between the right and left knee joints in each mouse was assessed using a digital micrometer to evaluate the AIA severity. Each joint was measured three times and the mean diameter was calculated and recorded. […]
To assess the therapeutic effects of the peptides on AIA, the mice were euthanized on day 3 post-AIA induction. […] The degree of histopathologic tissue damage was quantified using the following previously described cumulative score for evaluating disease severity (Durigutto et al., [2013]). […] Additionally, according to the immunofluorescence protocol, tissue deposition of MAC was assessed by immunofluorescence assay with incubating rabbit anti-mouse C9 IgG (Sigma-Aldrich) at a 1:200 dilution overnight at 4°C followed by incubation with FITC-labeled goat anti-rabbit IgG (DAKO, Glostrup, Denmark) at a 1:200 dilution for an additional 60 min at room temperature (Lei et al., [2020]). […]

In data set [3] the test system is normal mouse knee joint cavity. The data set can be described thus: Peptide retention in normal mouse joint cavities (immunofluorescence). In kind it is in vivo. Particulars: biotin-labeled peptide, 10 μg in 10 μl PBS intraarticular, normal mice; for staining of joint cavity after intraarticular injection: 12, 24, 48 h, streptavidin-FITC, one mouse per time point. As to the method:
As previous studies reported, immunofluorescence assay was used to assess the retention time of the peptides in normal mouse joint cavities (Williams et al., [2004]). The normal mice were divided into original and modified peptide groups and treated with the corresponding peptides [10 μg in 10 μl PBS by intraarticular (IA) injection respectively. At 12, 24, and 48 h after injection, a single mouse from each group was randomly chosen and sacrificed under anesthesia (1% sodium pentobarbital, 50 mg/kg)]. Knee joints were dissected, fixed in 4% paraformaldehyde, and decalcified with decalcification solution (0.5 M EDTA, pH 8.0) before embedding in paraffin. Midsagittal serial sections (7 μm in thickness) were cut and peptide retention was assessed using streptavidin-FITC (eBioscience) (1:100 in PBS) followed by fluorescent microscopy (Leica).
Figure 4 Retention time of the modified peptide in the joint cavities was prolonged. The biotin-labeled original or modified peptide was injected into the knee joint and then the knee joints were dissected at 12, 24, and 48 h and probed with streptavidin-FITC in immunofluorescence assays.

Data set [4] has as its system mice with antigen-induced arthritis (AIA). Nature of the data set: Knee joint swelling in antigen-induced arthritis (AIA). The class given is in vivo, mouse. Particulars: 40 μg peptide + 25 μg mBSA in 10 μl PBS intraarticular; days 2, 3 and 4 after induction; n = 6; **p < 0.01. As to the method: as §1

On to “Myr-GSSKSPSKKKKKKPG-ACP-VSMGKSLSSKVYVM [modified peptide, Ts-pmy-derived peptide modified with a membrane-targeting signal]”, for which, in data set [1], the “MAC deposition in synovial connective tissue” value is reported as “significantly weaker”. For the same substance, the “synovial histology (HE)” value in data set [2] is “milder synovial hyperplasia and inflammatory cell infiltration compared to the AIA-only or original peptide+AIA mice”. In addition, in data set [2] (40 μg peptide intraarticular at the time of AIA induction, cumulative score (synovial hyperplasia, leukocyte infiltration, fibrosis), no numbers given), the histopathological scores entry is given as “significantly decreased”. The “staining of joint cavity after intraarticular injection” value in data set [3] is “intense staining along the synovial lining even at 48 h after injection”. The “retention time on synovial lining” value in data set [3] (48 h is last time point) is on record as not below 48 h. In addition, the “joint swelling (left vs right knee diameter) compared to AIA-only mice” value in data set [4] was “significant reductions in joint swelling on days 2, 3, and 4 after disease induction”.
As to “VSMGKSLSSKVYVM [original peptide, tetradecapeptide derived from Trichinella spiralis paramyosin (Ts-pmy)]”, the “MAC deposition in synovial connective tissue” value in data set [1] is “clearly detected”. In data set [2], the “synovial histology (HE)” value is “severe edema, hyperplasia, and inflammatory cell infiltration compared to normal joints”. Further, in data set [3], the “staining of joint cavity after intraarticular injection” value was “no staining”.

For the origin of these results see PMC7785802, “Therapeutic Efficacy of a Trichinella Spiralis Paramyosin-Derived Peptide Modified With a Membrane-Targeting Signal in Mice With Antigen-Induced Arthritis” (Frontiers in Microbiology, 2020).
